This is an account of results in patent publication US20200354331A1, “ICARIIN DERIVATIVES” (H. LEE MOFFITT CANCER CENTER AND RESEARCH INSTITUTE, INC., priority 2014, published 2020).

Assay [1] deals with K562. Briefly: IC50 of ICT in cell lines. Conditions: Homo sapiens. Type of assay: cell-based.
Assay [2] concerns Raji. The experiment in a line: IC50 of ICT in cell lines. The format is cell-based. Conditions: Homo sapiens.
Another assay concerns 4T1. The experiment in a line: Apoptosis rates of ICT in cell lines. The format is cell-based.
Assay [3] deals with K562. Briefly: Apoptosis rates of ICT in cell lines. Type of assay: cell-based.
The test system of assay [4] is Raji. Briefly: Apoptosis rates of ICT in cell lines. Type of assay: cell-based.
For another assay, the system named is MCF-7. The experiment in a line: Apoptosis rates of ICT in cell lines. Type of assay: cell-based.
A further assay concerns U937. The experiment in a line: Apoptosis rates of ICT in cell lines. The format is cell-based.
Another assay relates to PBMC. The experiment in a line: Apoptosis rates of ICT in cell lines. Type of assay: cell-based.
Assay [5] relates to IL-10, TGFb, TNFa, ARG2 and NOS2. Briefly: Expression of suppressive factors in PBMC (Q-PCR). The following applies: healthy PBMC, 48 hours, 20 μM. The format is cell-based. How it is done: Healthy PBMC were cultured for 48 hours with 20 μM the gene expression of suppressive factors measured by the DDCt method. The experimental control is PBMC treated with DMSO and the internal control was GAPDH. Error bars indicate the SEM of three separate donors/experiments.

The test system of assay [6] is NK cells and lymphokine-activated killer cells. The following applies: 0.1 to 1.0 microgram/ml; tumor patients and healthy donors; cited from earlier work.

One may read the IC50 as the midpoint of a concentration-inhibition curve. Low values mean higher potency, high ones lower potency. On to `COc1ccc(-c2oc3c(CCC(C)(C)O)c(O)cc(O)c3c(=O)c2O)cc1` [ICT, 3,5,7-trihydroxy-4′-methoxy-8-(3-hydroxy-3-methylbutyl)-flavone], for which the IC50 with K562 [1] came out at 50.5 µM; with Raji [2], 25.6 µM. For the same compound, the Apoptosis rates was 4.0% with 4T1 (4T1, 5 μM); 6.3% in the assay on 4T1 (4T1, 10 μM); 7.1% in the assay on 4T1 (4T1, 20 μM); 5.5% in the assay on K562 [3] (K562, 5 μM); 6.7% in the assay on K562 [3] (K562, 10 μM); 7.8% in the assay with K562 [3] (K562, 20 μM). For the same compound, the Apoptosis rates in the assay with Raji [4] (5 μM) turned out to be 9.1%; in the assay with Raji [4] (10 μM) it was 9.2%; in the assay with Raji [4] (20 μM), 10.0%; with MCF-7 (MCF-7, 5 μM) it was 3.9%; in the assay with MCF-7 (MCF-7, 10 μM), 4.1%; in the assay on MCF-7 (MCF-7, 20 μM), 6.1%. For the same compound, the Apoptosis rates in the assay on U937 (U937, 5 μM) worked out at 3.1%; in the assay with U937 (U937, 10 μM), 2.6%; in the assay on U937 (U937, 20 μM), 2.7%; in the assay on PBMC (5 μM), 4.6%; in the assay with PBMC (10 μM), 5.5%; in the assay with PBMC (20 μM), 6.9%. In [5], the “expression of suppressive factors in PBMC” value is reported as “down-regulate the expression of suppressive factors in PBMC”.
With `COc1ccc(-c2oc3c(CC=C(C)C)c(O[C@@H]4O[C@H](CO)[C@@H](O)[C@H](O)[C@H]4O)cc(O)c3c(=O)c2O[C@@H]2O[C@@H](C)[C@H](O)[C@@H](O)[C@H]2O)cc1` [ICA, Icariin], in assay [6], the “NK cell activity and LAK activity” value was “increase NK cell activity and lymphokine-activated killer cell (LAK) activity”.
